In patent US20200390100A1, “SUBSTITUTED N-HETEROCYCLYL- AND N-HETEROARYL-TETRAHYDROPYRIMIDINONES AND THE SALTS THEREOF, AND THE USE OF SAME AS HERBICIDAL ACTIVE SUBSTANCES” (Bayer Aktiengesellschaft, priority 2017, published 2020):
Where two headings read alike, the source gives them in different places.

How the values were obtained:
photosystem II (PS II) = target: T1, photosystem II (PS II) (Spinacia oleracea, UniProt P69560); assay: Measurement of PS II activity in thylakoid membranes (DCPIP reduction); assay type: biochemical, spinach; details: read-out: Effect
T1 construct: the chloroplasts were osmotically ruptured and the thylakoid membranes were then obtained by centrifugation; from tissue; host or cells: fresh spinach leaves; thylakoid membrane preparation from isolated chloroplasts
Protocol: Cooled fresh spinach leaves were comminuted and homogenized in 50 mM phosphate buffer, pH 6.8. 10 mM KCl, 0.34 M sucrose (sucrose buffer) (blender, 1 g of plant material/ml). The homogenate was subsequently filtered through 4 layers of Miracloth and the chloroplasts were isolated by centrifugation, i.e. 10 min of centrifugation at 4400×g (4° C.). The sediment was suspended in 25 ml of sucrose buffer and re-centrifuged for 10 min at 4400×g (4° C.). The sediment was then suspended in 40 ml of 50 mM phosphate buffer, pH 6.8, 10 mM KCl, without sucrose. In this step, the chloroplasts were osmotically ruptured and the thylakoid membranes were then obtained by centrifugation (10 min, 4400×g, 4° C.). The membrane sediment was finally suspended in about 20 ml of 50 mM phosphate buffer, pH 6.8, 10 mM KCl. Following protein determination and activity determination, the membrane suspension was divided into aliquots and frozen in liquid nitrogen. The aliquots were stored at −80° C. Under these conditions, the photosystem II preparation was storage stable for at least three months. The activity determination of photosystem II (PS II) was then carried out using the following test principle: The electron transfer from PS II to an artificial electron acceptor, 2,6-dichlorophenolindophenol (DCPIP), was measured with exposure to light. The concentration of the blue oxidized form of DCPIP was determined spectrophotometrically at wavelength λ=595 nm. […] The activity determination is carried out in microtiter plates (96 cavities) in a reaction volume of 200 μl. Here, 155 μl of dilute membrane suspension were initially charged in 50 mM of phosphate buffer, pH 6.8, 10 mM KCl. Depending on the activity of the PS II preparation, the dilution was adjusted such that the measurement of the decrease in absorption (λ=595 nm) was linear for at least 10 min. In each case 5 μl solutions of the test compounds of a concentration of 100 μM in DMSO were added to the enzyme suspension; controls contained 5 μl of DMSO; the final concentration of DMSO in the reaction batch was thus 2.5% (v/v); this concentration had no adverse effect on the enzymatic activity. On each microtiter plate, a known PS II inhibitor, for example metribuzin, was used as standard, which allowed the quality of the PS II test to be assessed. The reaction was started by addition of 40 μl DCPIP solution (600 μM in distilled water); the final concentration of DCPIP was 120 μM. Measurement of absorption is carried out over a period of 10 min at 22° C. and with exposure to light. Using metribuzin as comparative substance, the results for the efficacy of the compounds of the general formula (I) at 100 μM are stated in the table below using the following classification: ++++(inhibition≥90%), +++(90%>inhibition≥70%), ++(70%>inhibition≥50%), +(50%>inhibition≥30%).

Echinochloa crus-galli = assay: Herbicidal pre-emergence action (Part 2), 1280 g/ha; assay type: in vivo; details: application rate 1280 g/ha, scored visually after about 3 weeks, Table D1
Excerpt: (§1) Seeds of mono- and dicotyledonous weed plants were placed in plastic pots in sandy loam soil (doubly sown with in each case one species of mono- or dicotyledonous weed plants per pot) and covered with soil. The compounds of the invention, formulated in the form of wettable powders (WP) or as emulsion concentrates (EC), were then applied onto the surface of the covering soil as aqueous suspension or emulsion with addition of 0.5% additive at a water application rate of 600 liters per hectare (converted). After the treatment, the pots were placed in a greenhouse and kept under good growth conditions for the test plants. After about 3 weeks, the effect of the preparations was scored visually in comparison with untreated controls as percentages. For example, 100% activity=the plants have died, 0% activity=like control plants. Tables D1 to D8 below show the effects of selected compounds of the general formula (I) according to Tables 1.1 to 1.150 on various harmful plants and at an application rate corresponding to 1280 g/ha, which were obtained by the experimental procedure mentioned above.

Abutilon theophrasti [1] = assay: Post-emergence herbicidal action, greenhouse, 320 g/ha; assay type: in vivo; details: application rate 320 g/ha, rated visually after about 3 weeks vs untreated controls
Protocol: (§2) Seeds of monocotyledonous and dicotyledonous weeds and crop plants were placed in sandy loam in plastic or wood-fiber pots, covered with soil and cultivated in a greenhouse under controlled growth conditions. 2 to 3 weeks after sowing, the test plants were treated at the one-leaf stage. The compounds of the invention, formulated in the form of wettable powders (WP) or as emulsion concentrates (EC), were then sprayed onto the green parts of the plants as aqueous suspension or emulsion with addition of 0.5% additive at a water application rate of […] (converted). After the test plants had been kept in the greenhouse under optimum growth conditions for about 3 weeks, the activity of the preparations was rated visually in comparison to untreated controls. For example, 100% activity=the plants have died, 0% activity=like control plants. Tables A1 to A14 below show the effects of selected compounds of the general formula (I) according to Tables 1.1 to 1.150 on various harmful plants and at an application rate corresponding to 320 g/ha, which were obtained by the experimental procedure mentioned above.

Amaranthus retroflexus [2] = assay: as above; assay type: in vivo; details: application rate 320 g/ha, rated visually after about 3 weeks vs untreated controls
Protocol: as §2

Matricaria inodora [3] = assay: as above; assay type: in vivo; details: application rate 320 g/ha, rated visually after about 3 weeks vs untreated controls
Protocol: as §2

Pharbitis purpurea [4] = assay: as above; assay type: in vivo; details: application rate 320 g/ha, rated visually after about 3 weeks vs untreated controls
Protocol: as §2

Polygonum convolvulus [5] = assay: as above; assay type: in vivo; details: application rate 320 g/ha, rated visually after about 3 weeks vs untreated controls
Protocol: as §2

Setaria viridis [6] = assay: as above; assay type: in vivo; details: application rate 320 g/ha, rated visually after about 3 weeks vs untreated controls
Protocol: as §2

Stellaria media [7] = assay: as above; assay type: in vivo; details: application rate 320 g/ha, rated visually after about 3 weeks vs untreated controls
Protocol: as §2

Abutilon theophrasti [8] = assay: Pre-emergence herbicidal action, greenhouse, 320 g/ha; assay type: in vivo; details: application rate 320 g/ha, scored visually after about 3 weeks vs untreated controls
Excerpt: (§3) Seeds of monocotyledonous and dicotyledonous weed plants and crop plants were placed in plastic or organic planting pots and covered with soil. The compounds of the invention, formulated in the form of wettable powders (WP) or as emulsion concentrates (EC), were then applied to the surface of the covering soil as aqueous suspension or emulsion with addition of 0.5% additive at a water application rate equivalent to […]. After the treatment, the pots were placed in a greenhouse and kept under good growth conditions for the test plants. After about 3 weeks, the effect of the preparations is scored visually in comparison with untreated controls as percentages. For example, 100% activity=the plants have died, 0% activity=like control plants. Tables B1 to B14 below show the effects of selected compounds of the general formula (I) according to Tables I.1 to I.150 on various harmful plants and at an application rate corresponding to 320 g/ha, which were obtained by the experimental procedure mentioned above.

Alopecurus myosuroides = assay: as above; assay type: in vivo; details: application rate 320 g/ha, scored visually after about 3 weeks vs untreated controls
Excerpt: as §3

Amaranthus retroflexus [9] = assay: as above; assay type: in vivo; details: application rate 320 g/ha, scored visually after about 3 weeks vs untreated controls
Excerpt: as §3

Avena fatua = assay: as above; assay type: in vivo; details: application rate 320 g/ha, scored visually after about 3 weeks vs untreated controls
Excerpt: as §3

Digitaria sanguinalis = assay: as above; assay type: in vivo; details: application rate 320 g/ha, Table B9
Excerpt: as §3

Hordeum murinum = assay: as above; assay type: in vivo; details: application rate 320 g/ha, Table B14
Excerpt: as §3

Matricaria inodora [10] = assay: as above; assay type: in vivo; details: application rate 320 g/ha, scored visually after about 3 weeks vs untreated controls
Excerpt: as §3

Pharbitis purpurea [11] = assay: as above; assay type: in vivo; details: application rate 320 g/ha, Table B12
Excerpt: as §3

Polygonum convolvulus [12] = assay: as above; assay type: in vivo; details: application rate 320 g/ha, scored visually after about 3 weeks vs untreated controls
Excerpt: as §3

Setaria viridis [13] = assay: as above; assay type: in vivo; details: application rate 320 g/ha, Table B11
Excerpt: as §3

Stellaria media [14] = assay: as above; assay type: in vivo; details: application rate 320 g/ha, scored visually after about 3 weeks vs untreated controls
Excerpt: as §3

Viola tricolor [15] = assay: as above; assay type: in vivo; details: application rate 320 g/ha, Table B8
Excerpt: as §3

Veronica persica = assay: as above; assay type: in vivo; details: application rate 320 g/ha, Table B13
Excerpt: as §3

Viola tricolor [16] = assay: Post-emergence herbicidal action, greenhouse, 320 g/ha; assay type: in vivo; details: application rate 320 g/ha, rated visually after about 3 weeks vs untreated controls
Protocol: as §2

Amaranthus retroflexus [17] = assay: Herbicidal post-emergence action (Part 2), 1280 g/ha; assay type: in vivo; details: application rate 1280 g/ha, rated visually after about 3 weeks, Table C5
Protocol: (§4) Seeds of mono- and dicotyledonous weed plants were placed in plastic pots in sandy loam soil (doubly sown with in each case one species of mono- or dicotyledonous weed plants per pot), covered with soil and cultivated in a greenhouse under controlled growth conditions. 2 to 3 weeks after sowing, the test plants were treated at the one-leaf stage. The compounds of the invention, formulated in the form of wettable powders (WP) or as emulsion concentrates (EC), were applied onto the green parts of the plants as aqueous suspension or emulsion with addition of 0.5% additive at a water application rate of 600 liters per hectare (converted). After the test plants had been kept in the greenhouse under optimum growth conditions for about 3 weeks, the activity of the preparations was rated visually in comparison to untreated controls. For example, 100% activity=the plants have died, 0% activity=like control plants. Tables C1 to C7 below show the effects of selected compounds of the general formula (I) according to Tables 1.1 to 1.150 on various harmful plants and at an application rate corresponding to 1280 g/ha, which were obtained by the experimental procedure mentioned above.

Poa annua [18] = assay: as above; assay type: in vivo; details: application rate 1280 g/ha, rated visually after about 3 weeks, Table C2
Protocol: as §4

Abutilon theophrasti [19] = assay: Herbicidal pre-emergence action (Part 2), 1280 g/ha; assay type: in vivo; details: application rate 1280 g/ha, scored visually after about 3 weeks, Table D5
Excerpt: as §1

Matricaria inodora [20] = assay: as above; assay type: in vivo; details: application rate 1280 g/ha, scored visually after about 3 weeks, Table D7
Excerpt: as §1

Poa annua [21] = assay: as above; assay type: in vivo; details: application rate 1280 g/ha, scored visually after about 3 weeks, Table D3
Excerpt: as §1

[22] = PS II activity in spinach thylakoid membranes, Table E1

SMILES | inhibition at 100 µM (photosystem II (PS II); [22]) [%] | Abutilon theophrasti (efficacy in %) (Abutilon theophrasti [1]) [%] | Amaranthus retroflexus (efficacy in %) (Amaranthus retroflexus [2]) [%] | Matricaria inodora (efficacy in %) (Matricaria inodora [3]) [%] | Setaria viridis (efficacy in %) (Setaria viridis [6]) [%] | Stellaria media (efficacy in %) (Stellaria media [7]) [%] | Alopecurus myosuroides (efficacy in %) (Alopecurus myosuroides) [%] | Amaranthus retroflexus (efficacy in %) (Amaranthus retroflexus [9]) [%] | Digitaria sanguinalis (efficacy in %) (Digitaria sanguinalis) [%] | Matricaria inodora (efficacy in %) (Matricaria inodora [10]) [%] | Pharbitis purpurea (efficacy in %) (Pharbitis purpurea [11]) [%] | Polygonum convolvulus (efficacy in %) (Polygonum convolvulus [12]) [%] | Stellaria media (efficacy in %) (Stellaria media [14]) [%] | Viola tricolor (efficacy in %) (Viola tricolor [15]) [%] | further results
CSc1nnc(C(C)(C)C)c(=O)n1N [Metribuzin, metribuzin, reference compound] | – | – | – | – | – | – | – | – | – | – | – | – | – | – | inhibition at 100 µM (photosystem II (PS II)): > 90%
CN1CCC(O)N(c2cc(C(C)(C)C)no2)C1=O (centres unmarked) [I.1-290, 3-(3-tert-Butyl-1,2-oxazol-5-yl)-4-hydroxy-1-methyltetrahydropyrimidin-2(1H)-one] | > 90 | – | – | – | – | – | – | – | – | – | – | – | – | – | Echinochloa crus-galli (Echinochloa crus-galli): 90%
CC(=O)OC1CC2CCCN2C(=O)N1c1cc(C(C)(C)C)on1 (centres unmarked) [I.122-162] | – | 100 | 90 | 90 | 80 | 80 | 90 | 90 | 100 | 100 | 100 | 100 | 100 | 100 | Pharbitis purpurea (efficacy in %) (Pharbitis purpurea [4]): 80%; Polygonum convolvulus (efficacy in %) (Polygonum convolvulus [5]): 90%; Abutilon theophrasti (efficacy in %) (Abutilon theophrasti [8]): 100%; Avena fatua (efficacy in %) (Avena fatua): 80%; Hordeum murinum (efficacy in %) (Hordeum murinum): 100%; Setaria viridis (efficacy in %) (Setaria viridis [13]): 100%
CN1CCC(O)N(c2cc(C(F)(F)F)ccn2)C1=O (centres unmarked) [I.1-449, 4-Hydroxy-1-methyl-3-[4-(trifluoromethyl)pyridin-2-yl]tetrahydropyrimidin-2(1H)-one] | 50 to 70 | – | – | – | – | – | 100 | 100 | 100 | 80 | 100 | 100 | 100 | 100 | Veronica persica (efficacy in %) (Veronica persica): 80%
CC(=O)OC1CC(C)N(C)C(=O)N1c1cc(C(C)(C)C)on1 (single isomer, unassigned) [I.42-162_a] | – | 100 | 100 | 100 | 80 | 100 | – | – | – | – | – | – | – | – | Viola tricolor (efficacy in %) (Viola tricolor [16]): 100%
CN1CC(C)(C)C(O)N(c2cc(C(C)(C)C)on2)C1=O (centres unmarked) [I.61-162, 1-(5-tert-Butyl-1,2-oxazol-3-yl)-6-hydroxy-3,5,5-trimethyltetrahydropyrimidin-2(1H)-one] | 70 to 90 | – | – | – | – | – | – | – | – | – | – | – | – | – | Amaranthus retroflexus (Amaranthus retroflexus [17]): 100%; Poa Annua (Poa annua [18]): 90%; Abutilon theophrasti (Abutilon theophrasti [19]): 100%; Matricaria inodora (Matricaria inodora [20]): 90%; Poa Annua (Poa annua [21]): 100%
